Assay results reported in ChEMBL document CHEMBL1129858, “Antitumor agents. 1771. Design, syntheses, and biological evaluation of novel etoposide analogs bearing pyrrolecarboxamidino group as DNA topoisomerase II inhibitors” (1997).

What was measured:
[1] = Average in vitro cytotoxicity was calculated from all cell lines tested, activity expressed as average log TGI50.; assay type: functional; conditions: read-out: Log TGI (converted)
M14 = experiment: Tested for the in vitro cytotoxicity against M-14 melanoma; assay type: functional, Homo sapiens
OVCAR-8 = experiment: Tested for the in vitro cytotoxicity against OVCAR-8 ovarian cancer cell lines,; assay type: functional, Homo sapiens
SF-295 = experiment: Tested for the in vitro cytotoxicity against SF-295 CNS tumor cell lines; assay type: functional, Homo sapiens
NCI-H23 = experiment: Tested for the in vitro cytotoxicity against NCI-H23 non-small cell lung cancer cell line; assay type: functional, Homo sapiens
DU-145 = experiment: Tested for the in vitro cytotoxicity against DU-145 prostate cancer cell line; assay type: functional, Homo sapiens
ACHN = experiment: Tested for the in vitro cytotoxicity against ACHN renal cancer cell line; assay type: functional, Homo sapiens
HCC 2998 = experiment: Tested for the in vitro cytotoxicity against HCC2998 colon cancer cell lines; assay type: functional, Homo sapiens
[2] = Average in vitro cytotoxicity was calculated from all cell lines tested,; assay type: functional
MCF7 = experiment: Tested for the in vitro cytotoxicity against MCF-7 breast cancer cell line; assay type: functional, Homo sapiens
[3] = Average in vitro cytotoxicity was calculated from all cell lines tested; assay type: functional
MOLT-4 = experiment: Tested for the in vitro cytotoxicity against MOLT-4 leukemia cell line; assay type: functional, Homo sapiens
[4] = molecular target: DNA topoisomerase II (Homo sapiens) (UniProt P11388+Q02880); experiment: Tested for the inhibition of DNA topoisomerase II; assay type: protein assay
KB [5] = experiment: Tested for the cytotoxicity against KB-7d cellsTested for the cytotoxicity against KB cells; ID50/LD50 = 0.2/>10; assay type: functional, cell-based
KB [6] = experiment: Tested for the cytotoxicity against KB cells; ID50/LD50 = 0.08/>10; assay type: functional, cell-based; conditions: Homo sapiens
KB [7] = experiment: Tested for the cellular protein DNA complex formation in KB cells at the concentration of 2.5 uM
KB [8] = experiment: Tested for the cellular protein DNA complex formation in KB cells at concentration of 25 uM; assay type: functional, Homo sapiens
KB [9] = experiment: Tested for the cellular protein DNA complex formation in KB cells at the concentration of 2.5 uM; assay type: functional, Homo sapiens
KB [10] = experiment: Tested for the cellular protein DNA complex formation in KB cells at concentration of 2.5 uM; assay type: functional, Homo sapiens

Row | SMILES | TGI [1] [nM] | GI50 (SF-295) [nM] | GI50 (ACHN) [nM] | GI50 [2] [nM] | GI50 (M14; Homo sapiens, M14) [nM] | LC50 [3] [nM] | GI50 (OVCAR-8; Homo sapiens, OVCAR-8) [nM] | GI50 (NCI-H23; Homo sapiens, NCI-H23) [nM] | GI50 (DU-145; Homo sapiens, DU-145) [nM] | GI50 (HCC 2998; Homo sapiens, HCC 2998) [nM] | GI50 (MCF7; Homo sapiens, MCF7) [nM] | GI50 (MOLT-4; Homo sapiens, MOLT-4) [nM] | GI50 (SF-295; Homo sapiens, SF-295) [nM] | GI50 (ACHN; Homo sapiens, ACHN) [nM] | IC100 [4] [µM] | Activity (KB [8]) [%] | also measured
1 | COc1cc([C@@H]2c3cc4c(cc3[C@@H](Nc3ccc(NC(=O)c5cc([N+](=O)[O-])cn5C)cc3)[C@H]3COC(=O)[C@H]23)OCO4)cc(OC)c1O [listing 1 of 3 here] | 525 | 138 | 14.1 | 100 | – | – | – | – | – | – | – | – | – | – | – | – | GI50 (M14): 63.1 nM; GI50 (OVCAR-8): 126 nM; GI50 (NCI-H23): 38.9 nM; GI50 (DU-145): 14.4 nM; GI50 (HCC 2998): 245 nM
2 | COc1cc([C@@H]2c3cc4c(cc3[C@@H](NCCNCCO)[C@H]3COC(=O)[C@H]23)OCO4)cc(OC)c1O [listing 1 of 2 here] | 12000 | 178 | 2340 | 1350 | 3980 | 66100 | 2630 | 1320 | 2750 | 1260 | – | – | – | – | – | – | GI50 (MCF7): 38.9 nM; GI50 (MOLT-4): < 10 nM
3 | CNCCN[C@@H]1c2cc3c(cc2[C@@H](c2cc(OC)c(O)c(OC)c2)[C@H]2C(=O)OC[C@@H]21)OCO3 | 3020 | – | – | 240 | 398 | 38900 | 309 | 162 | 363 | 269 | 14.4 | < 10 | 29.5 | 66.1 | – | – | –
4 | COc1cc([C@@H]2c3cc4c(cc3[C@@H](Nc3ccc(NC(=O)c5cc([N+](=O)[O-])cn5C)cc3)[C@H]3COC(=O)[C@H]23)OCO4)cc(OC)c1O [listing 2 of 3 here] | – | – | – | – | – | – | – | – | – | – | – | – | – | – | 12.5 | – | –
5 | COc1cc([C@@H]2c3cc4c(cc3[C@@H](Nc3ccc(NC(=O)c5cc(NC(=O)c6cc([N+](=O)[O-])cn6C)cn5C)cc3)[C@H]3COC(=O)[C@H]23)OCO4)cc(OC)c1O | 28800 | – | – | 1170 | 5500 | 81300 | 759 | 724 | 372 | 6030 | 47.9 | < 10 | 4900 | 229 | 100 | 26 | Ratio (KB [5]): ID50/LD50 = 0.2/>10; Cytotoxicity (KB [6]): ID50/LD50 = 0.08/>10; Activity (KB [7]): 30%
6 | COc1cc([C@@H]2c3cc4c(cc3[C@@H](O[C@@H]3O[C@@H]5CO[C@@H](C)O[C@H]5[C@H](O)[C@H]3O)[C@H]3COC(=O)[C@H]23)OCO4)cc(OC)c1O [ETOPOSIDE] | 77600 | – | – | 9770 | 813 | – | 16600 | 8320 | 851 | 18200 | 4370 | 1020 | 10000 | 871 | 100 | 100 | Activity (KB [9]): 100%
7 | COc1cc([C@@H]2c3cc4c(cc3[C@@H](Nc3ccc(NC(=O)c5cc([N+](=O)[O-])cn5C)cc3)[C@H]3COC(=O)[C@H]23)OCO4)cc(OC)c1O [listing 3 of 3 here] | 1950 | 51.3 | – | 123 | 45.7 | – | 97.7 | 49 | 17 | 224 | < 10 | < 10 | – | 11.8 | – | 100 | Activity (KB [10]): 225%
8 | COc1cc([C@@H]2c3cc4c(cc3[C@@H](NCCNCCO)[C@H]3COC(=O)[C@H]23)OCO4)cc(OC)c1O [listing 2 of 2 here] | 21400 | 1020 | 339 | 1860 | – | 83200 | – | – | – | – | – | – | – | – | – | – | GI50 (MCF7): 95.5 nM; GI50 (M14): 4070 nM; GI50 (MOLT-4): 26.9 nM; GI50 (OVCAR-8): 2400 nM; GI50 (NCI-H23): 661 nM; GI50 (DU-145): 2290 nM; GI50 (HCC 2998): 3390 nM
9 | COc1cc([C@@H]2c3cc4c(cc3[C@@H](NC(=O)NO)[C@H]3COC(=O)[C@H]23)OCO4)cc(OC)c1O | 93300 | – | – | 9770 | 37200 | 100000 | 34700 | 9330 | 7240 | 4070 | 7760 | 4900 | 5010 | 6030 | – | – | –
